“And” between values parts separate entries of the source, which are not always exact repeats. Identical values can stand only once. Toxic doses and inconclusive results are not listed.
Tested on: CD2F1 mice, L1210 leukemia ip, survival T/C
Experiment: NCI In Vivo Anticancer Drug Screen. Data for tumor model L1210 Leukemia (intraperitoneal) in CD2F1 (CDF1) mice
Settings: higher = longer survival
How it was run: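 Compound-dosed mice with transplantable tumor versus matched vehicle controls; endpoint ratio T/C reported.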

[1] = endpoint: mean survival time, dose: 100.0 mg/kg/injection, schedule: Q01DX009 (ip), vehicle: saline with Tween-80
[2] = endpoint: mean survival time, dose: 200.0 mg/kg/injection, schedule: Q01DX009 (ip), vehicle: saline with Tween-80
[3] = endpoint: mean survival time, dose: 400.0 mg/kg/injection, schedule: Q01DX009 (ip), vehicle: saline with Tween-80
[4] = endpoint: mean survival time, dose: 75.0 mg/kg/injection, schedule: Q01DX001 (ip), vehicle: saline
[5] = endpoint: mean survival time, dose: 150.0 mg/kg/injection, schedule: Q01DX001 (ip), vehicle: saline
[6] = endpoint: mean survival time, dose: 100.0 mg/kg/injection, schedule: Q04DX002 (ip), vehicle: saline with Tween-80
[7] = endpoint: mean survival time, dose: 200.0 mg/kg/injection, schedule: Q04DX002 (ip), vehicle: saline with Tween-80
[8] = endpoint: mean survival time, dose: 400.0 mg/kg/injection, schedule: Q04DX002 (ip), vehicle: saline with Tween-80
[9] = endpoint: mean survival time, dose: 50.0 mg/kg/injection, schedule: Q01DX009 (ip), vehicle: saline
[10] = endpoint: mean survival time, dose: 100.0 mg/kg/injection, schedule: Q01DX001 (ip), vehicle: saline with Tween-80
[11] = endpoint: mean survival time, dose: 200.0 mg/kg/injection, schedule: Q01DX001 (ip), vehicle: saline with Tween-80
[12] = endpoint: mean survival time, dose: 400.0 mg/kg/injection, schedule: Q01DX001 (ip), vehicle: saline with Tween-80
[13] = endpoint: mean survival time, dose: 1.56 mg/kg/injection, schedule: Q01DX005 (ip), vehicle: other
[14] = endpoint: mean survival time, dose: 3.13 mg/kg/injection, schedule: Q01DX005 (ip), vehicle: other

In the case of O=C(Nc1ccc(S(=O)(=O)F)c(Cl)c1)Oc1ccccc1, the T/C [1] is reported as 101 % of control, the T/C (endpoint: mean survival time, dose: 100.0 mg/kg/injection, schedule: Q04DX003 (ip), vehicle: saline) is reported as 95 % of control and the T/C [2] is reported as 100 % of control. For the same molecule, the T/C (endpoint: mean survival time, dose: 200.0 mg/kg/injection, schedule: Q04DX003 (ip), vehicle: saline) was 95 % of control, the T/C [3] was 97 % of control and the T/C (endpoint: mean survival time, dose: 400.0 mg/kg/injection, schedule: Q04DX003 (ip), vehicle: saline) was 101 % of control.
With O=NN(CCCl)C(=O)NCc1ccc[n+]([O-])c1 the T/C (endpoint: mean survival time, dose: 6.25 mg/kg/injection, schedule: Q01DX001 (ip), vehicle: water) was 152 % of control and 167 % of control, the T/C (endpoint: mean survival time, dose: 12.5 mg/kg/injection, schedule: Q01DX001 (ip), vehicle: water) was 274 % of control and 290 % of control and the T/C (endpoint: mean survival time, dose: 25.0 mg/kg/injection, schedule: Q01DX001 (ip), vehicle: water) was 309 % of control and 324 % of control.
In the case of C[CH2][Sn]([I])([CH2]C)[CH2]C, the T/C (endpoint: mean survival time, dose: 6.25 mg/kg/injection, schedule: Q01DX009 (ip), vehicle: saline with Tween-80) is reported as 89 % of control.
In the case of Cc1cc(SCc2ccccc2)cc(C)[o+]1, the T/C [4] is reported as 106 % of control and the T/C [5] is reported as 93 % of control.
For CCc1ccc(C(=O)CCC(=O)O)cc1, the T/C [6] was 98 % of control, the T/C [7] was 95 % of control and the T/C [8] was 102 % of control.
Nc1cc(I)c2cccnc2c1O was tested, and the T/C (endpoint: mean survival time, dose: 6.25 mg/kg/injection, schedule: Q01DX009 (ip), vehicle: saline) was 96 % of control, the T/C (endpoint: mean survival time, dose: 12.5 mg/kg/injection, schedule: Q01DX009 (ip), vehicle: saline) was 111 % of control and the T/C (endpoint: mean survival time, dose: 25.0 mg/kg/injection, schedule: Q01DX009 (ip), vehicle: saline) was 100 % of control. For the same molecule, the T/C [9] was 108 % of control.
In the case of O=C(O)CS(=O)(=O)c1ccccc1, the T/C [9] is reported as 86 % of control and the T/C (endpoint: mean survival time, dose: 100.0 mg/kg/injection, schedule: Q01DX009 (ip), vehicle: saline) is reported as 89 % of control.
With C=CN1CCCC1=O (tested in a mixture with another compound) the T/C (endpoint: mean survival time, dose: 100.0 mg/kg/injection, schedule: Q04DX003 (ip), vehicle: saline with Tween-80) was 95 % of control, the T/C (endpoint: mean survival time, dose: 200.0 mg/kg/injection, schedule: Q04DX003 (ip), vehicle: saline with Tween-80) was 91 % of control and the T/C (endpoint: mean survival time, dose: 400.0 mg/kg/injection, schedule: Q04DX003 (ip), vehicle: saline with Tween-80) was 98 % of control.
With ClC1=CCCCC1 the T/C (endpoint: mean survival time, dose: 100.0 mg/kg/injection, schedule: Q04DX003 (ip), vehicle: acetone) was 102 % of control.
With O=C(N/N=C/c1ccccc1)c1nn[nH]n1 the T/C [10] was 96 % of control, the T/C [11] was 88 % of control and the T/C [12] was 88 % of control.
With Nc1nc(N)c2nc(CNc3ccc(C(=O)NC(CCC(=O)NC(CCC(=O)O)C(=O)O)C(=O)O)cc3)cnc2n1 (configuration not stated) the T/C (endpoint: mean survival time, dose: 0.7 mg/kg/injection, schedule: Q01DX009 (ip), vehicle: sodium bicarbonate) was 96 % of control and the T/C (endpoint: mean survival time, dose: 1.1 mg/kg/injection, schedule: Q01DX009 (ip), vehicle: sodium bicarbonate) was 92 % of control.
In the case of CCC[CH2][Sn]1([CH2]CCC)[O]C2C(CO)OC(n3ccc(=O)[nH]c3=O)C2[O]1 (configuration not stated), the T/C [13] is reported as 98 % of control, the T/C [14] is reported as 102 % of control and the T/C (endpoint: mean survival time, dose: 6.25 mg/kg/injection, schedule: Q01DX005 (ip), vehicle: other) is reported as 112 % of control. For the same molecule, the T/C (endpoint: mean survival time, dose: 12.5 mg/kg/injection, schedule: Q01DX005 (ip), vehicle: other) was 100 % of control.
O=S(=O)(N=N/C=C1\C=CC=CN1O)c1cccs1 was tested, and the T/C (endpoint: mean survival time, dose: 12.5 mg/kg/injection, schedule: Q01DX009 (ip), vehicle: saline with Tween-80) was 95 % of control, the T/C (endpoint: mean survival time, dose: 25.0 mg/kg/injection, schedule: Q01DX009 (ip), vehicle: saline with Tween-80) was 101 % of control and the T/C (endpoint: mean survival time, dose: 50.0 mg/kg/injection, schedule: Q01DX009 (ip), vehicle: saline with Tween-80) was 103 % of control. For the same molecule, the T/C [1] was 109 % of control and the T/C [2] was 104 % of control.
In the case of CNC(=O)Nc1ccc(S(N)(=O)=O)cc1, the T/C [1] is reported as 97 % of control, the T/C [2] is reported as 91 % of control and the T/C [3] is reported as 100 % of control.
With O=C(N/N=C/c1ccccc1)c1cc([N+](=O)[O-])cc([N+](=O)[O-])c1 the T/C (endpoint: mean survival time, dose: 100.0 mg/kg/injection, schedule: Q01DX009 (ip), vehicle: Klucel (hydroxypropylcellulose) (HPC)) was 94 % of control, the T/C (endpoint: mean survival time, dose: 200.0 mg/kg/injection, schedule: Q01DX009 (ip), vehicle: Klucel (hydroxypropylcellulose) (HPC)) was 100 % of control and the T/C (endpoint: mean survival time, dose: 400.0 mg/kg/injection, schedule: Q01DX009 (ip), vehicle: Klucel (hydroxypropylcellulose) (HPC)) was 98 % of control.
With COc1ccc(-c2cc(=O)c3ccc(O)cc3o2)cc1 the T/C [4] was 104 % of control, the T/C [5] was 90 % of control and the T/C (endpoint: mean survival time, dose: 300.0 mg/kg/injection, schedule: Q01DX001 (ip), vehicle: saline) was 104 % of control.
In the case of CCC[CH2][Sn]1([CH2]CCC)[O]C2C(CO)OC(n3cnc4c(N)ncnc43)C2[O]1 (configuration not stated), the T/C (endpoint: mean survival time, dose: 0.2 mg/kg/injection, schedule: Q01DX005 (ip), vehicle: other) is reported as 107 % of control, the T/C (endpoint: mean survival time, dose: 0.39 mg/kg/injection, schedule: Q01DX005 (ip), vehicle: other) is reported as 104 % of control and the T/C (endpoint: mean survival time, dose: 0.78 mg/kg/injection, schedule: Q01DX005 (ip), vehicle: other) is reported as 104 % of control. The T/C [13] was 102 % of control and 107 % of control and the T/C [14] was 103 % of control and 110 % of control.
For CCC(C1=NC(C)(C)CC(C)O1)c1ccccc1 (configuration not stated) (tested in a mixture with another compound), the T/C [1] was 102 % of control and the T/C [2] was 93 % of control.
With CC(C)CCCC(C)CO[P+](=O)OCC(C)CCCC(C)C (configuration not stated) the T/C [6] was 103 % of control, the T/C [7] was 96 % of control and the T/C [8] was 88 % of control.
NC(CS)=NCC12CC3CC(CC(C3)C1)C2 was tested, and the T/C (endpoint: mean survival time, dose: 12.5 mg/kg/injection, schedule: Q01DX001 (ip), vehicle: Klucel (hydroxypropylcellulose) (HPC)) was 92 % of control, the T/C (endpoint: mean survival time, dose: 25.0 mg/kg/injection, schedule: Q01DX001 (ip), vehicle: Klucel (hydroxypropylcellulose) (HPC)) was 94 % of control and the T/C (endpoint: mean survival time, dose: 50.0 mg/kg/injection, schedule: Q01DX001 (ip), vehicle: Klucel (hydroxypropylcellulose) (HPC)) was 101 % of control.
Brc1ccccc1-c1ccccc1-c1ccccc1 was tested, and the T/C [1] was 106 % of control, the T/C [2] was 101 % of control and the T/C [3] was 101 % of control.
In the case of COC1OCC(C(C)=O)C(O)C1O (configuration not stated), the T/C (endpoint: mean survival time, dose: 100.0 mg/kg/injection, schedule: Q01DX001 (ip), vehicle: saline) is reported as 101 % of control, the T/C (endpoint: mean survival time, dose: 200.0 mg/kg/injection, schedule: Q01DX001 (ip), vehicle: saline) is reported as 96 % of control and the T/C (endpoint: mean survival time, dose: 400.0 mg/kg/injection, schedule: Q01DX001 (ip), vehicle: saline) is reported as 95 % of control.
In the case of Nc1c([N+](=O)[O-])cncc1[N+](=O)[O-], the T/C (endpoint: mean survival time, dose: 6.25 mg/kg/injection, schedule: Q01DX009 (ip), vehicle: saline sonified) is reported as 102 % of control, the T/C (endpoint: mean survival time, dose: 6.25 mg/kg/injection, schedule: Q04DX003 (ip), vehicle: saline with Tween-80) is reported as 98 % of control and the T/C (endpoint: mean survival time, dose: 12.5 mg/kg/injection, schedule: Q01DX009 (ip), vehicle: saline sonified) is reported as 98 % of control. For the same molecule, the T/C (endpoint: mean survival time, dose: 12.5 mg/kg/injection, schedule: Q04DX003 (ip), vehicle: saline with Tween-80) was 102 % of control, the T/C (endpoint: mean survival time, dose: 25.0 mg/kg/injection, schedule: Q01DX009 (ip), vehicle: saline sonified) was 98 % of control and the T/C (endpoint: mean survival time, dose: 25.0 mg/kg/injection, schedule: Q04DX003 (ip), vehicle: saline with Tween-80) was 102 % of control.
For O=C1OC2(c3cc(I)c(O)c(I)c3Oc3c2cc(I)c(O)c3I)c2c(Cl)ccc(Cl)c21, the T/C [10] was 103 % of control, the T/C [11] was 87 % of control and the T/C [12] was 100 % of control.
In the case of CC(C)CC(N)C(=O)O (configuration not stated) (tested in a mixture with another compound), the T/C (endpoint: median survival time, dose: 3.13 mg/kg/injection, schedule: Q04DX002 (ip), vehicle: saline) is reported as 111 % of control and 108 % of control, the T/C (endpoint: median survival time, dose: 6.25 mg/kg/injection, schedule: Q04DX002 (ip), vehicle: saline) is reported as 105 % of control and 100 % of control and 111 % of control and the T/C (endpoint: median survival time, dose: 12.5 mg/kg/injection, schedule: Q04DX002 (ip), vehicle: saline) is reported as 100 % of control and 105 % of control. For the same molecule, the T/C (endpoint: median survival time, dose: 25.0 mg/kg/injection, schedule: Q04DX002 (ip), vehicle: saline) was 100 % of control and 105 % of control, the T/C (endpoint: median survival time, dose: 50.0 mg/kg/injection, schedule: Q04DX002 (ip), vehicle: saline) was 111 % of control and 100 % of control and 108 % of control and the T/C (endpoint: median survival time, dose: 100.0 mg/kg/injection, schedule: Q04DX002 (ip), vehicle: saline) was 105 % of control. For the same molecule, the T/C (endpoint: median survival time, dose: 200.0 mg/kg/injection, schedule: Q04DX002 (ip), vehicle: saline) was 108 % of control and the T/C (endpoint: median survival time, dose: 400.0 mg/kg/injection, schedule: Q04DX002 (ip), vehicle: saline) was 96 % of control.
For O=C(Nc1cccc(F)c1)c1ccco1, the T/C (endpoint: mean survival time, dose: 100.0 mg/kg/injection, schedule: Q04DX003 (ip), vehicle: Klucel (hydroxypropylcellulose) (HPC)) was 94 % of control, the T/C (endpoint: mean survival time, dose: 200.0 mg/kg/injection, schedule: Q04DX003 (ip), vehicle: Klucel (hydroxypropylcellulose) (HPC)) was 88 % of control and the T/C (endpoint: mean survival time, dose: 400.0 mg/kg/injection, schedule: Q04DX003 (ip), vehicle: Klucel (hydroxypropylcellulose) (HPC)) was 91 % of control.
